Measurements published in US9683025B2, “Methods and compositions for treating cancer and inflammatory diseases” (The Regents of the University of Colorado, A Body Corporate, priority 2013, dated 2017).
pIC50, pKd: −log10 of the molar value. Entries after “also recorded” stand apart in the source; their conditions may differ. Like-named read-outs stand apart in the source and are kept apart here. Where a SMILES comes first, the peptide text is derived from it.

Key:
CtBP-E1A interaction [1] = biological target: T1, CtBP-E1A interaction (Homo sapiens, UniProt Q13363); assay: CtBP-E1A interaction inhibition (AlphaScreen / fluorescence polarization competition assay); assay type: binding; details: IC50 value, Table 3; inhibition of CtBP/E1A protein interaction
Method: The ability of peptides to inhibit CtBP binding can be monitored by two biochemical assays. An AlphaScreen assay (Perkin-Elmer) was developed that is capable of detecting the CtBP-E1A interaction. Purified GST-E1A and 6xHis-CtBP are incubated with glutathione-conjugated donor beads and nickel-chelated acceptor beads respectively. The interaction between CtBP and E1A brings the donor and acceptor beads in close proximity, which produces a fluorescence signal after laser excitation and can be detected using the EnVision plate reader. A peptide that inhibits this interaction will limit the proximity of the beads and thus a loss in fluorescence signal will occur. In addition to the alphascreen, a fluorescence polarization based assay with a fluorescein-labeled 14mer E1A peptide ([…] (SEQ ID NO: 1)) was also developed. Purified 6xHis-CtBP is incubated with the fluorescein-labeled E1A peptide and changes in the polarization value of the labeled peptide are detected using the EnVision plate reader. A decrease in peptide binding to CtBP can be detected by an […], and used to monitor peptide inhibition. IC50 values of designed peptides can be determined using either of these assays through the addition of increasing amounts in each well and monitoring the degree of inhibition of the CtBP-E1A interaction.
Multiple amino acid sequences may appear at positions outside the conserved peptide motif. The most frequently occurring amino acids in these positions are used to design the peptides that bind CtBP with the highest affinity. The affinity of these new peptides is compared to the original 14mer E1A peptide (SEQ ID NO:1) by comparing the IC50 of these peptides in inhibiting the CtBP/E1A protein interaction in a competition assay. The peptide identified from phage display that competes with the CtBP/E1A protein interaction better than the original 14mer E1A peptide is selected and conjugated to the cell penetrating peptide of the present invention. Also provided in Table 3 are […] for selected peptides.
The ability of peptides to inhibit CtBP binding can be monitored by two biochemical assays. An AlphaScreen assay (Perkin-Elmer) was developed that is capable of detecting the CtBP-E1A interaction. Purified GST-E1A and 6xHis-CtBP are incubated with glutathione-conjugated donor beads and nickel-chelated acceptor beads respectively. The interaction between CtBP and E1A brings the donor and acceptor beads in close proximity, which produces a fluorescence signal after laser excitation and can be detected using the EnVision plate reader. A peptide that inhibits this interaction will limit the proximity of the beads and thus a loss in fluorescence signal will occur. In addition to the alphascreen, a fluorescence polarization based assay with a fluorescein-labeled 14mer E1A peptide ([…] (SEQ ID NO: 1)) was also developed. Purified 6xHis-CtBP is incubated with the fluorescein-labeled E1A peptide and changes in the polarization value of the labeled peptide are detected using the EnVision plate reader. A decrease in peptide binding to CtBP can be detected by an […], and used to monitor peptide inhibition. IC50 values of designed peptides can be determined using either of these assays through the addition of increasing amounts in each well and monitoring the degree of inhibition of the CtBP-E1A interaction. Also provided in Table 4 are IC50 for selected peptides.

CtBP [2] = biological target: T2, CtBP (Homo sapiens, UniProt Q13363); assay: Fluorescence polarization competition of unlabeled peptide with FITC-labeled 14mer peptide; assay type: binding
T2 construct: 6xHis
Method: (§1) Additional peptides were tested for in vitro inhibitory potency (Table 5). For Kd determination, FITC-labeled peptide (FITC-peptide) was incubated with varying concentrations of CtBP. The fluorescence polarization values of the FITC-peptide were measured and plotted against CtBP concentration to determine Kd of the FITC-peptide with CtBP using the Prism program. […] For IC50 determination, a fluorescence polarization assay was utilized. […] Increasing concentrations of unlabeled peptide were added to compete with the FITC-labeled peptide, leading to a decreased fluorescence polarization value.

CtBP [3] = biological target: T2, CtBP; assay: Fluorescence polarization Kd determination of FITC-peptide with CtBP; assay type: binding
Method: as §1

CtBP-E1A interaction [4] = biological target: T1, CtBP-E1A interaction; details: read-out: IC50 of inhibition of the CtBP/E1A interaction in vitro; Zhang et al. 2000; cited from earlier work
A375 melanoma cells = assay: Cell viability, A375; assay type: cell-based; details: A375, CtBP overexpressing, FIG. 5
From the text: (§2) The Tat peptide alone has no effect on these cells.

[5] = system: H1299 non-small cell lung carcinoma cells; assay: Cell viability, H1299; assay type: cell-based, human; details: H1299, CtBP overexpressing, FIG. 5
From the text: as §2

3T3 cells = assay: Cell viability, 3T3; assay type: cell-based, mouse; details: 3T3, does not significantly overexpress CtBP, FIG. 5
From the text: as §2

[6] = system: CtBP target genes BAX, BRCA1, and E-Cadherin; assay: Real-time PCR of endogenous CtBP target genes in H1299 cells; assay type: cell-based, human; details: increasing concentrations, FIG. 6
Method: Total RNA was isolated using TRIzol (Invitrogen) as previously described (Zhang et al., 2006). One hundred nanograms of RNA from each sample were subjected to qRT-PCR (ThermoFisher). An 18S probe was used as an internal control. Each sample was examined in triplicate. Relative RNA expression levels were determined by normalizing with internal controls, the values were calculated using the comparative Ct method.
Subsequently, the transcription levels of the endogenous CtBP target genes BAX, BRCA1, and E-Cadherin in Tat-E1A treated H1299 cells were evaluated using real-time PCR.

[7] = system: IMQ-based psoriasis model; assay: IMQ-based psoriasis model; assay type: in vivo, mouse; details: FIG. 15B, versus PBS
[8] = system: IMQ-based psoriasis model; assay: IMQ-based psoriasis model; assay type: in vivo, mouse
Method: To elucidate the molecular mechanisms for the Pep1-E1A blocker, H&E and immunostaining for proliferative and inflammatory markers was performed.

CC(C)C[C@H](NC(=O)[C@H](CC(=O)O)NC(=O)[C@H](CC(C)C)NC(=O)[C@@H]1CCCN1C(=O)[C@H](CCC(N)=O)NC(=O)CNC(=O)[C@@H]1CCCN1C(=O)[C@@H](N)CCC(=O)O)C(=O)N[C@@H](CO)C(=O)N[C@@H](CS)C(=O)N[C@@H](CCCCN)C(=O)N[C@@H](CCCNC(=N)N)C(=O)N1CCC[C@H]1C(=O)N[C@@H](CCCNC(=N)N)C(=O)O [Wild-type, reference compound] (H-EPGQPLDLSCKRPR-OH; N-terminus and C-terminus assumed)
pIC50 (CtBP-E1A interaction [1]): 5.14
pIC50 (CtBP [2]): 5.22
pKd (CtBP [3]): 5.37
pIC50 (CtBP-E1A interaction [4]): ~5.15

GRKKRRQRRRPPQ [Tat, cell penetrating peptide alone, control, reference compound]
cell viability (A375 melanoma cells): no effect
cell viability [5]: no effect
cell viability (3T3 cells): no effect

GRKKRRQRRRPPQLEEPGQPLDLSCKRPR [Tat-E1A]
cell viability (A375 melanoma cells): reduces the viability
cell viability [5]: reduces the viability
cell viability (3T3 cells): does not affect
CtBP-mediated suppression of target genes BAX, BRCA1, E-Cadherin (transcription levels) [6]: dose-dependent alleviation; also recorded: relieves the suppression
erythema, thickening and scaling (cumulative score) [7]: Reduction

KETWWETWWTEWSQPKKKRKVLEEPGQPLDLSCKRPR [Pep1-E1A]
psoriasis-like phenotype ([8]; applied on the skin (data not shown)): largely reduced
IMQ-induced epithelial hyperplasia and inflammatory cell infiltration in the stroma (H&E) ([8]; compared to PBS-treated skin, FIG. 7A): decreases
BrdU incorporation (proliferation) ([8]; immunostaining, FIG. 7B): largely reduced; also recorded: decreased
CD45 staining (inflammation) ([8]; immunostaining, FIG. 7B): largely prevented; also recorded: decreased
psoriasis-like phenotype ([8]; injected subcutaneously, FIG. 7): largely reduced
resistance to IMQ-induction of psoriasis ([8]; treated mice versus PBS control): showed resistance
erythema, thickening and scaling (cumulative score) [7]: Reduction
